Data set [1] has as its target T1, serotonin 5-HT3 receptor (Cavia porcellus, UniProt O70212).
T1 construct: Longitudinal muscle samples of about 20 mm were prepared from the ileum of Hartley male guinea pigs; from tissue; host or cells: guinea pig (Hartley, male) ileum longitudinal muscle
T1 sequence (O70212 20-490): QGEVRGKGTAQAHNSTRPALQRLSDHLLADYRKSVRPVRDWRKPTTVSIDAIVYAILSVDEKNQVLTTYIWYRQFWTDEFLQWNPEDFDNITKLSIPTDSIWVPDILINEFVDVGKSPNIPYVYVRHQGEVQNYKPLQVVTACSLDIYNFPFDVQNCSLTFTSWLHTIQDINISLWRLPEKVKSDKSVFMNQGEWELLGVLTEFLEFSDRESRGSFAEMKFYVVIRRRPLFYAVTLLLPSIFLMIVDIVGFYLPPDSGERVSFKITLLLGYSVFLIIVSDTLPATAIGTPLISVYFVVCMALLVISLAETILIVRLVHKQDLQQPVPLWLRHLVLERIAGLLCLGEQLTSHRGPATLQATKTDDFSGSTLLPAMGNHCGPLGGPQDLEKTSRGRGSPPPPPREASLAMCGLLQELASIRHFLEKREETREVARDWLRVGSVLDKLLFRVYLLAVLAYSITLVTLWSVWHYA
Put plainly: 5-HT3 receptor activating action test, isometric contraction of guinea pig ileum longitudinal muscle. The data set is classed as cell-based. The conditions noted are these: for EC50: negative logarithm of molar concentration giving 50% of the compound's maximum contraction, read-out: Activation Action pD2 (converted); for EC50 / Activation Action i.a.: guinea pig ileum; for Activation Action i.a.: ratio of maximum reaction of compound to maximum contraction by 10 μM serotonin 5-HT defined as 1, 5-HT4 receptor desensitized; for serotonin 5-HT3 receptor activating action (in words): guinea pig ileum contraction, summary of Table 1. As to the method:
5-HT3 Receptor Activating Action Test
(§1) Of the novel and known benzoxazole compounds according to the present invention, typical compounds and the compounds disclosed in JP-A-6-345744, namely 5-methoxy-2-(4-methyl-1-piperazinyl)benzoxazole (A) and 2-(4-methyl-1-piperazinyl)naphtho[2,3-d]oxazole (B), were measured for their serotonin 5-HT3 receptor antagonism and serotonin 5-HT3 receptor activating action by the following method, with the results shown in Table 1. Test compounds of the present invention are shown by the Inventive Example numbers.
(§2) Longitudinal muscle samples of about 20 mm were prepared from the ileum of Hartley male guinea pigs (500 to 800 g). Each of the thus prepared samples was hung down in a Magnus tube with a resting tension of about 0.5 g to measure the isometric contraction reaction. Serotonin 5-HT was applied with a concentration of from 0.1 to 30 μM to the sample which has been subjected twice in advance to 1 hour of treatment with 0.3 μM serotonin 5-HT to effect desensitization of serotonin 5-HT4 receptor.
The i.a. value was expressed as the ratio of the maximum reaction of each compound when the maximum contraction reaction obtained by 10 μM of serotonin 5-HT was defined as 1. The pD2 value was. expressed as the negative logarithmic value of concentration (molar concentration) by which 50% of the maximum contraction reaction of each test compound can be obtained. Also, antagonism of each test compound against the serotonin 5-HT3 receptor was calculated as the inhibition ratio of the contraction obtained by applying 10 μM of serotonin 5-HT (manufactured by Sigma) to a sample which has been treated with […] of each test sample to the contraction obtained by applying 10 μM of serotonin 5-HT to the sample before treatment.

Data set [2] deals with T1, serotonin 5-HT3 receptor. Put plainly: Serotonin 5-HT3 receptor antagonism, inhibition of 5-HT-induced contraction of guinea pig ileum longitudinal muscle. The class given is cell-based. As to conditions: inhibition ratio of contraction by 10 μM serotonin 5-HT after treatment with test compound 10 μM; Hartley guinea pig ileum. The method, then: as §1, §2
The i.a. value was expressed as the ratio of the maximum reaction of each compound when the maximum contraction reaction obtained by 10 μM of serotonin 5-HT was defined as 1. The pD2 value was. expressed as the negative logarithmic value of concentration (molar concentration) by which 50% of the maximum contraction reaction of each test compound can be obtained. […]

The test system of data set [3] is mice. Put plainly: Toxicity test, oral administration to mice. The data set is classed as in vivo. As to conditions: dose of 300 mg/kg, dissolved in water, five-week-old male mice (5 animals).

On to `CN1CCN(c2nc3c(ccc4ccccc43)o2)CC1` [Example 21, 2-(4-Methyl-1-piperazinyl)naphtho[1,2-d]oxazole], for which, in data set [1], the EC50 was 501 nM and the “Activation Action i.a.” value is given as 0.26. Further, the inhibition at 10 µM in data set [2] worked out at 85%.

As for `Cc1cc(Cl)cc2nc(N3CCN(C)CC3)oc12` [Example 31, 5-Chloro-7-methyl-2-(4-methyl-1-piperazinyl)benzoxazole], in data set [1], the EC50 is 200 nM and the “Activation Action i.a.” value was found to be 0.24. Besides, the inhibition at 10 µM in data set [2] was 85%.

In the case of `C=CC[N+]1(C)CCN(c2nc3cc(Cl)ccc3o2)CC1` [Example 2], in data set [1], the EC50 is 224 nM and the “Activation Action i.a.” value turned out to be 0.57. In addition, the inhibition at 10 µM in data set [2] is 90%.

For the compound `c1ccc2oc(N3CCNCC3)nc2c1` [Example 14, 2-(1-Piperazinyl)benzoxazole], the inhibition at 10 µM in data set [2] was 75%.

With `Cc1cc(Cl)cc2nc(N3CCCN(C)CC3)oc12` [Example 37, 5-Chloro-7-methyl-2-(4-methyl-1-homopiperazinyl)benzoxazole], in data set [1], the EC50 was 20 nM and the “Activation Action i.a.” value is 0.15. Also, the inhibition at 10 µM in data set [2] turned out to be 98%.

In the case of `COc1ccc2oc(N3CCN(C)CC3)nc2c1` [A, 5-methoxy-2-(4-methyl-1-piperazinyl)benzoxazole, reference compound], in data set [1], the “serotonin 5-HT3 receptor activating action (in words)” value was “does not have serotonin 5-HT3 receptor activating action”. Besides, the inhibition at 10 µM in data set [2] turned out to be 34%.

As to `C=CC[N+]1(C)CCN(c2nc3cc(C)ccc3o2)CC1.[Br-]` [Example 25, 1-Allyl-1-methyl-4-(5-methylbenzoxazol-2-yl)piperazinium bromide], in data set [1], the EC50 is 708 nM and the “Activation Action i.a.” value worked out at 0.79. In addition, the inhibition at 10 µM in data set [2] was 86%.

Consider `C=CC[N+]1(C)CCN(c2nc3cc(Cl)c(N)cc3o2)CC1.[Br-]` [Example 7, 1-Allyl-1-methyl-4-(6-amino-5-chlorobenzoxazol-2-yl)piperazinium bromide], for which, in data set [1], the EC50 was 316 nM and the “Activation Action i.a.” value is 0.94. In addition, in data set [2], the inhibition at 10 µM amounted to 67%.

`C=CC[N+]1(C)CCN(c2nc3cccc(C)c3o2)CC1.[Br-]` [Example 28, 1-Allyl-1-methyl-4-(7-methylbenzoxazol-2-yl)piperazinium bromide]: the mortality entry in data set [3] is “No mortal case”.

For the compound `CN1CCN(c2nc3cc4ccccc4cc3o2)CC1` [B, 2-(4-methyl-1-piperazinyl)naphtho[2,3-d]oxazole, reference compound], in data set [1], the “serotonin 5-HT3 receptor activating action (in words)” value is “weak in comparison with the compounds of the present invention”, the EC50 was 3980 nM and the “Activation Action i.a.” value was 0.45. Also, the inhibition at 10 µM in data set [2] came to 85%.

For `Cc1cc(C)c2oc(N3CCNCC3)nc2c1` [Example 13, 5,7-Dimethyl-2-(1-piperazinyl)benzoxazole], in data set [1], the EC50 is 100 nM and the “Activation Action i.a.” value came out at 0.18. Also, in data set [2], the inhibition at 10 µM is 100%. In data set [3], the mortality entry is recorded as “No mortal case”.

`CN1CCN(c2nc3cc(Cl)ccc3o2)CC1` [Example 1, 5-Chloro-2-(4-methyl-1-piperazinyl)benzoxazole]: in data set [1], the EC50 was 398 nM and the “Activation Action i.a.” value is 0.55. The inhibition at 10 µM in data set [2] stood at 92%.

Turning to `CN1CCN(c2nc3cc(Cl)c(N)cc3o2)CC1` [Example 5, 6-Amino-5-chloro-2-(4-methyl-1-piperazinyl)benzoxazole], in data set [1], the EC50 is 676 nM and the “Activation Action i.a.” value came out at 0.59. The inhibition at 10 µM in data set [2] was 95%.

On to `Cc1ccc2oc(C3CCNCC3)nc2c1` [Example 16, 2-(4-Piperidyl)-5-methylbenzoxazole], for which, in data set [1], the EC50 is 617 nM and the “Activation Action i.a.” value worked out at 0.24. Further, the inhibition at 10 µM in data set [2] worked out at 82%.

Regarding `Cc1cc(C)c2oc(N3CCCN(C)CC3)nc2c1` [Example 36, 5,7-Dimethyl-2-(4-methyl-1-homopiperazinyl)benzoxazole], in data set [1], the EC50 is 63.1 nM and the “Activation Action i.a.” value stood at 0.28. For the same compound, the inhibition at 10 µM in data set [2] is 96%.

Consider `CN1CCCN(c2nc3c(ccc4ccccc43)o2)CC1` [Example 40, 2-(4-Methyl-1-homopiperazinyl)naphtho[1,2-d]oxazole], for which, in data set [1], the EC50 is 79.4 nM and the “Activation Action i.a.” value came out at 0.21. Moreover, in data set [2], the inhibition at 10 µM is 89%.

On to `Nc1cc2oc(N3CCNCC3)nc2cc1Cl` [Example 10, 6-Amino-5-chloro-2-(1-piperazinyl)benzoxazole], for which, in data set [1], the EC50 was 676 nM and the “Activation Action i.a.” value came out at 0.69. Besides, in data set [2], the inhibition at 10 µM was 88%.

What is called inhibition is the percentage by which the read-out fell short of the control.
